How the values were obtained:
[1] = tested on: Non-Small Cell Lung cancer cell lines; assay: NCI 60 five-dose screen, non-small cell lung panel; type: cell-based, human; settings: 48 h
Description: (§1) National Cancer Institute Cancer Cell Line (NCI 60) Screen of DefNEtTrp. Details of the methodology for NCI 60 cell line screening are described at http://dtp.nci.nih.gov/branches/btb/ivclsp.html. The cells, grown in supplemented RPMI-1640 medium, are seeded in 96 well plates at an appropriate density and incubated for 24 h. The test compounds are dissolved in DMSO and incubated with cells at a single dose of 10.0 μM for 48 h. The assay is terminated by addition of cold trichloroacetic acid, and the cells are fixed and stained with sulforhodamine B. Bound stain is solubilized, and the absorbance is read on an automated plate reader. […] Using the seven absorbance measurements [time zero, […], control growth, (C), and test growth in the presence of drug at the five concentration levels (Tf)], the percentage growth was calculated at each of the drug concentrations levels as: [(Tf−Ti)/(C−Ti)]×100 for concentrations for which Tf≥Ti and [(Tf−Ti)/Ti]×100 for concentrations for which Tf<Ti. Three-dose response parameters (GI50, TGI, and LC50) were calculated for each of the experimental agents in five dose assay. […] The total growth inhibition (TGI) was calculated from Tf=Ti, which was the drug concentration resulting in total growth inhibition and signified the cytostatic effect. […]

red blood cells = assay: CO-ADD hemolysis assay; type: cell-based, human; settings: up to a concentration of 50.3 μM; human red blood cells, 1 h at 37° C.
Description: CO-ADD hemolysis assay. Dry compounds ranging from 1-2 mg were delivered to the CO-ADD. The compounds were solubilized to a stock concentration of 10 mg/mL in DMSO. Samples were serially diluted 1:2 fold in water to final testing concentrations of […] while keeping the final DMSO concentration to a maximum of 0.32% (v/v). Each sample concentration was prepared in polypropylene 384-well plates (Corning 3657) for hemolysis assays, all in two duplicate plates (n=2). All sample preparation was conducted using liquid handling robots. Human whole blood (Australian Red Cross) was washed three times with three volumes of 0.9% NaCl (w/v) and resuspended in a concentration of […], determined by manual cell count in a Neubauer hemocytometer. Washed cells were added to the compound-containing plates for a final volume of 50 μL. After a 10 min shake on a plate shaker the plates were then incubated for 1 h at 37° C. After incubation, the plates were centrifuged at 1000 g for 10 min to pellet cells and debris, 25 μL of the supernatant was then transferred to reading plates (384 well, polystyrene plated (PS), Corning CLS3680), with hemolysis determined by measuring the supernatant absorbance at […] (OD405) using a Tecan M1000 Pro monochromator plate reader. HC10 and HC50 (concentration at 10% and 50% hemolysis, respectively) were calculated by curve fitting the inhibition values vs. log(concentration) using a sigmoidal dose-response function with variable fitting values for the top, bottom, and slope. The maximal percentage of hemolysis is reported as Dmax. Hemolysis samples are classified by HC10≤32 μg/mL. […] Melittin was used in 8 concentrations in 2-fold serial dilutions with 50 µg/mL being the highest concentration.

Jurkat cells = assay: Ferroptosis mechanistic cell viability study (ferrostatin-1); type: cell-based, human; settings: 10 μM Fer-1 pretreatment, 2 μM DefNEtTrp, 72 h
Description: Ferroptosis mechanistic cell viability study. Jurkat cells were seeded into 96-well plates, as indicated in the MTT assay described above The cells were treated with 10 μM of the ferroptosis inhibitor ferrostatin-1 (Fer-1). Another group of cells were treated with media alone. After 1 h incubation, half of the cells supplemented with Fer-1 were treated with 2 μM DefNEtTrp or 25 μM [Fe(citrate)2]^5−, as positive control, while the other half was treated with media alone. The final percentage of DMF was maintained at 0.5% (v/v). The MTT assay was performed with these samples (n=6). A student t-test was performed to evaluate the difference in the viability of cells treated with DefNEtTrp or [Fe(citrate)2]^5− and supplemented with and without Fer-1.

Colon cancer cell lines = assay: NCI 60 five-dose screen, colon panel; type: cell-based, human; settings: 48 h
Description: as §1

[2] = target: T1, Fe(III)-saturated serum transferrin (Fe2-sTf) (Homo sapiens, UniProt P02787); assay: Scavenging of Fe(III) from Fe(III)-saturated serum transferrin; type: biochemical; settings: 22.5 μM Fe2-sTf with 45 μM DefNEtTrp, pH 7.4, 25° C., monitored over 3 days
T1 construct: purchased Sigma T2036
Description: The ability of DefNEtTrp to scavenge Fe(ITT) from Fe(ITI)-saturated serum transferrin(Fe2-sTf) was also examined. Fe2-sTf was prepared by reacting micromolar amounts of apo-sTf with 4 mol equiv of in situ prepared [Fe(citrate)2]^5− in 20 mM Hepes buffer (pH 7.4) containing 0.1 M NaCl and 27 mM NaHCO3. The sample was extensively dialyzed by rapid spin dialysis to remove the excess unbound Fe(III). The Fe(III) content was determined by the ferrozine colorimetric assay modified from a literature protocol and by monitoring the Fe2-STf-(CO3)2 LMCT band (λmax 465 nm; ε=5200 M^−1 cm^−1) (Viollier 2000, The ferrozine method revisited: Fe(II)/Fe(III) determination in natural waters. Appl. Geochem. 15 (6): 785-790). To 22.5 μM Fe2-sTf was reacted 45 μM DefNEtTrp (diluted in the same protein buffer while maintaining 5% DMF) in quadruplicate at 25° C. The reaction solutions were left to equilibrate and the LMCT absorbance was monitored after 24 h and 72 h. The reaction solutions were extensively dialyzed and then the protein concentrations were quantified by the Bradford colorimetric assay. The UV-Vis spectra of the washed protein samples were collected.

[3] = cell lines in which TGI was observed
[4] = Homo sapiens, read-out: GI50 (calculated average)

T1 sequence (P02787 20-698): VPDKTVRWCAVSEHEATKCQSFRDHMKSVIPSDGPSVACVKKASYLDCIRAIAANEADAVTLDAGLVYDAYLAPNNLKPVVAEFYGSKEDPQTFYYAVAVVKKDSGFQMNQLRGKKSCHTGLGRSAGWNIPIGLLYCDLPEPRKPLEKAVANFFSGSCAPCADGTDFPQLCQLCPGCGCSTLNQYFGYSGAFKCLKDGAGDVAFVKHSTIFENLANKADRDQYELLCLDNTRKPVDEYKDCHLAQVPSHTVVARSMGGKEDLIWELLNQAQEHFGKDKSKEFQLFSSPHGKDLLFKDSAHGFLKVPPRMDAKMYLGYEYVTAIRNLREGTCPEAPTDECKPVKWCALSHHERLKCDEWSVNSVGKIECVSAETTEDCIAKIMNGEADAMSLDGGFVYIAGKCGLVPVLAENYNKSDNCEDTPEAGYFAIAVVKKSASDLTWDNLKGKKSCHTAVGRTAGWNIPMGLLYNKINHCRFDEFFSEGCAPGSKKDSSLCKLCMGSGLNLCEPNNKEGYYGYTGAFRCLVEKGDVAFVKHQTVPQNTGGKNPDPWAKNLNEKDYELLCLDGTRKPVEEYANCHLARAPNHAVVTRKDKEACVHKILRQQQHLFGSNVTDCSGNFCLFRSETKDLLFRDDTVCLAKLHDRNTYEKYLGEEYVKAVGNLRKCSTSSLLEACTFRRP

Nc1cccnc1/C=N/NC(=S)NCCNC(=O)c1ccc(-n2nc(-c3ccccc3O)nc2-c2ccccc2O)cc1 [DefNEtTrp, deferasirox nitrogen ethyl triapine]
TGI (calculated average) [1, 3]: 6330 nM | GI50 [1, 4]: 730 nM | hemolysis (red blood cells): ~5% | change in cell viability of cells pretreated with Fer-1 (Jurkat cells): two-fold increase in the cell viability | TGI (calculated average) (Colon cancer cell lines; [3]): 12220 nM | GI50 (Colon cancer cell lines; [4]): 870 nM | removal of Fe(III) from Fe2-sTf (LMCT absorbance 465 nm) [2]: no metal dissociation

Source: patent US20260055081A1, “Metal Chelator Compounds, Coordination Complexes, and Methods of Preparation and Use Thereof” (University of Puerto Rico, priority 2022, published 2026)
